From patent publication US7589079B2, “Crystalline and amorphous forms of beta-L-2′-deoxythymidine” (Novartis AG, priority 2002, dated 2009)
≈ marks a conversion by molar mass, not a printed value. Marks after values point to notes of the source that are not given here.

Legend:
[1] = Moisture sorption/desorption (VTI SGA-100 Vapor Sorption Analyzer); assay type: physicochemical; settings: for Moisture balance: loss from 95-5% RH: desorption from 95% to 5% RH; for Moisture balance: weight loss at 5% RH: equilibration at 5% RH; for Moisture balance: weight gain at 95% RH: sorption up to 95% RH; for Weight lost upon lowering the relative humidity (in words): lowering relative humidity from 95% RH to 5% RH
Procedure: Moisture sorption/desorption data were collected on a VTI SGA-100 Vapor Sorption Analyzer. Sorption and desorption data were collected over a range of 5% to 95% relative humidity (RH) at 10% RH intervals under a nitrogen purge. Samples were not dried prior to analysis. Equilibrium criteria used for analysis were less than 0.0100% weight change in 5 minutes, with a maximum equilibration time of 3 hours if the weight criterion was not met. Data were not corrected for the initial moisture content of the samples. NaCl and PVP were used as calibration standards.

[2] = Approximate solubilities in various solvents at ambient temperature (crystallization screen); assay type: physicochemical
Procedure: A weighed sample of L-dT (usually 20-30 mg) was treated with aliquots of the test solvent. Solvents were either reagent or HPLC grade. The aliquots were usually 100 μL or 500 μL. Between additions the mixture was sonicated. When the solids dissolved, as judged by visual inspection, the solution was filtered, then left in an open vial under ambient conditions (fast evaporation). The procedure was repeated, and the resulting solution was left under ambient conditions in a vial with aluminum foil containing pinholes (slow evaporation). Samples were also generated by filtering a warm solution of L-dT into a cold antisolvent (cold precipitation).
Solubilities were estimated from these experiments based on the total solvent used to give a solution. Note that actual solubilities may be greater than those calculated because of the use of too-large solvent aliquots or a slow rate of dissolution.
Approximate solubilities of L-dT in various solvents at ambient temperature were determined during the crystalline screen, and are summarized in Table 1.

[3] = solvent 1,1,1,3,3,3-hexafluoroisopropanol
[4] = solvent N,N-dimethylformamide (DMF)
[5] = solvent ethanol (EtOH), after 2 hours, all solid was dissolved

Compound	Weight lost upon lowering the relative humidity (in words) [1]	Solubility [2, 3] [mg/mL]	Solubility ([2]; solvent 2,2,2-trifluoroethanol) [mg/mL]	Solubility ([2]; solvent MeOH:water (1:1)) [mg/mL]	Solubility [2, 4] [mg/mL]	Solubility ([2]; solvent THF:water (1:1)) [mg/mL]	Solubility ([2]; solvent acetone:water (4:1)) [mg/mL]	Solubility [2, 5]	Solubility ([2]; solvent methanol (MeOH)) [mg/mL]	Solubility ([2]; solvent water) [mg/mL]	other results
Cc1cn([C@@H]2C[C@@H](O)[C@H](CO)O2)c(=O)[nH]c1=O [Lot No. 2, beta-L-2′-deoxythymidine]	–	–	–	–	–	–	–	–	–	–	Moisture balance: loss from 95-5% RH ([1]; listed as 2): 2.7% loss from 95-5% RH; Moisture balance: weight loss at 5% RH ([1]; listed as 2): −0.4% weight loss at 5% RH; Moisture balance: weight gain at 95% RH ([1]; listed as 2): 2.8% weight gain at 95% RH
Cc1cn([C@@H]2C[C@@H](O)[C@H](CO)O2)c(=O)[nH]c1=O [crystalline L-dT, beta-L-2′-deoxythymidine]	All of this weight is lost	22 (≈ 90.8 mM)	8 (≈ 33 mM)	58 (≈ 239 mM)	72 (≈ 297 mM)	127 (≈ 524 mM)	51 (≈ 211 mM)	>3.6* mg/mL	11 (≈ 45.4 mM)	32 (≈ 132 mM)	Moisture balance: weight gain at 95% RH [1]: 1.1%; Solubility ([2]; solvent acetone): <4 mg/mL; Solubility ([2]; solvent acetonitrile (ACN)): <4 mg/mL; Solubility ([2]; solvent dichloromethane): <3 mg/mL; Solubility ([2]; solvent ethyl acetate (EtOAc)): <4 mg/mL; Solubility ([2]; solvent ethyl ether): <3 mg/mL; Solubility ([2]; solvent hexane): <4 mg/mL; Solubility ([2]; solvent isopropanol IPA): <3 mg/mL; Solubility ([2]; solvent tetrahydrofuran (THF)): 4 mg/mL (≈ 16.5 mM); Solubility ([2]; solvent toluene): <4 mg/mL
Cc1cn([C@@H]2C[C@@H](O)[C@H](CO)O2)c(=O)[nH]c1=O [Lot No. 1, beta-L-2′-deoxythymidine]	–	–	–	–	–	–	–	–	–	–	Moisture balance: loss from 95-5% RH ([1]; listed as 1): 1.1% loss from 95-5% RH; Moisture balance: weight loss at 5% RH ([1]; listed as 1): <0.1% weight loss at 5% RH; Moisture balance: weight gain at 95% RH ([1]; listed as 1): 1.1% weight gain at 95% RH
Cc1cn([C@@H]2C[C@@H](O)[C@H](CO)O2)c(=O)[nH]c1=O [amorphous L-dT, beta-L-2′-deoxythymidine]	loses almost all of this weight	–	–	–	–	–	–	–	–	–	Moisture balance: weight loss at 5% RH [1]: ~0.4%; Moisture sorption: weight gain up to about 55% RH ([1]; sorption up to about 55% RH): ~2.3%
Cc1cn([C@@H]2C[C@@H](O)[C@H](CO)O2)c(=O)[nH]c1=O [L-dT, beta-L-2′-deoxythymidine]	–	22 (≈ 90.8 mM)	8 (≈ 33 mM)	58 (≈ 239 mM)	72 (≈ 297 mM)	127 (≈ 524 mM)	51 (≈ 211 mM)	> 4 mg/mL	11 (≈ 45.4 mM)	32 (≈ 132 mM)	Solubility (in words) ([2]; in acetone, acetonitrile, ethyl acetate, diethyl ether, isopropanol, methylene chloride, and toluene): sparingly soluble
